Data from paper PMC11676875, “In Vitro Screening of an In-House Library of Structurally Distinct Chemotypes Towards the Identification of Novel SARS-CoV-2 Inhibitors” (Pharmaceuticals, 2024).
Like-named read-outs stand apart in the source and are kept apart here.

How the values were obtained:
in vitro = conditions: monkey
SARS-CoV-2 [1] = assay: microbe, parasite or virus in culture; type: cell-based, SARS-CoV-2 B1.1 lineage; conditions: for IC50: Severe acute respiratory syndrome coronavirus 2, Vero C1008, 72 h, read-out: SARS-CoV-2 IC50
Dengue virus type 2 = assay: Activity against Dengue virus type 2 (unpublished results); type: cell-based
SARS-CoV-2 [2] = conditions: read-out: IC50 against SARS-CoV-2; cited from earlier work
SARS-CoV-2 [3] = system: SARS-CoV-2; design: method as in PMID 37367224; conditions: lung epithelium cell line; cited from earlier work
SARS-CoV-2 [4] = conditions: reference compound; cited from earlier work
[5] = target: α4β2 subtype of the nicotinic receptor; design: method as in PMID 12088062; conditions: cited from earlier work
[6] = design: method as in PMID 34116325; conditions: cited from earlier work
[7] = microsomes and hepatocytes of different species; cited from earlier work
[8] = design: method as in PMID 29194347, PMID 37238706; conditions: cited from earlier work
[9] = mice, i.p.; cited from earlier work
[10] = non-human primates; cited from earlier work

SMILES	CC50 (in vitro) [µM]	IC50 (SARS-CoV-2 [1]) [µM]	SAR analysis summary of anti-SARS-CoV-2 activity (SARS-CoV-2 [1])	also measured
CCN(CC)CCCC(C)Nc1ccnc2cc(Cl)ccc12 (stereo not shown) [CQ, chloroquine, reference compound]	96.3	8.5		
Oc1ccc(-n2nc3ccc(C(F)(F)F)cc3n2)cc1 [Compound 21]	25.4	> 20		activity against SARS-CoV-2 (SARS-CoV-2 [1]): no activity; IC50 (Dengue virus type 2): 17 µM
CCN(CCO)CCCC(C)Nc1ccnc2cc(Cl)ccc12 (stereo not shown) [hydroxychloroquine]				IC50 (SARS-CoV-2 [2]): 0.72 µM
Clc1ccc(Nc2cc3nc4ccccc4n(-c4ccc(Cl)cc4)c-3cc2=NCC2CCCN3CCCCC23)cc1 (stereo not shown) [Compound 1]	3.14	> 2	Inactive/ Cytotoxic	
CC(C)/N=c1\cc2n(-c3ccc(Cl)cc3)c3ccccc3nc-2cc1Nc1ccc(Cl)cc1 [clofazimine]				reduction in viral RNA load (SARS-CoV-2 [3]): 25%; IC50 (SARS-CoV-2 [4]): 0.31 µM
O=c1cccc2n1CC1CC2CN(C(=S)NC2CCCCC2)C1 (stereo not shown) [Compound 23]	> 100	95.6		Ki [5]: 2.3 µM
Cc1ccc(Nc2cc3nc4ccccc4n(-c4ccc(C)cc4)c-3cc2=NCC2CCCN3CCCCC23)cc1 (stereo not shown) [Compound 2]	2.81	1.5		
CN1CCN(CCN=c2cc3n(-c4ccc(Cl)cc4)c4ccccc4nc-3cc2Nc2cccnc2)CC1 [Compound 7]	2.62		Inactive/ Cytotoxic	water solubility [6]: highly water soluble; inhibition at 1 µM (SARS-CoV-2 [1]; Severe acute respiratory syndrome coronavirus 2, Vero C1008, read-out: % inhibition of viral replication): 20.5%
CCN(CC)CCCn1c(Cn2nnc3ccccc32)nc2cc(C(C)=NNC(N)=S)ccc21 [Compound 15, 2-(1-{2-[(1H-Benzo[d][1,2, 3]triazol-1-yl)methyl]-1-[3-(N,N-diethylamino)propyl]-1H-benzo-[d]imidazol-5-yl}ethylidene)hydrazine-1-carbothioamide]	67.1	14.9		
Clc1ccc(-n2c3cc(=NCCN4CCOCC4)c(Nc4cccnc4)cc-3nc3ccccc32)cc1 [Compound 8]	1.74		Inactive/ Cytotoxic	
Cc1ccc2c(c1)nc(Cn1nnc3ccccc31)n2CC[C@@H]1CCCN2CCCC[C@H]12 [Compound 19]	76.3	15.3		
CC(=NNC(N)=S)c1ccc2c(c1)nc(Cc1ccccc1)n2C[C@@H]1CCCN2CCCC[C@H]12 [Compound 14, 2-(1-{2-Benzyl-1-[((1S,9aR)-octahydro-2H-quinolizin-1-yl)methyl]-1H-benzo[d]imidazol-5-yl}-ethylidene)hydrazine-1-carbothioamide]	70	12.2		
CCN(CC)CCCn1c(Cc2ccccc2)nc2cc(/C(C)=N\NC(N)=O)ccc21 [Compound 12]	> 100	> 100	Inactive/ Cytotoxic	
CCN(CC)CCCn1c(Cn2nnc3ccccc32)nc2cc(Cl)ccc21 [Compound 18]	107	28.1		
CC(=O)/C=C(/C)Nc1cccc2c3c([nH]c12)CCCC3 [Compound 25]	> 100	90.1		
Fc1ccc(Nc2cc3nc4ccccc4n(-c4ccc(F)cc4)c-3cc2=NCCCCC23CCCCN2CCCC3)cc1 [Compound 4]	2.19	> 1	Inactive/ Cytotoxic	
CCN(CC)CCCn1c(Cc2ccccc2)nc2cc(C(C)=NNC(N)=S)ccc21 [Compound 13]	96.1	20		
Clc1ccc2c(NCC34CCCN3CCC4)ccnc2c1 [Compound 11]	74.5	3.7		metabolic stability [7]: good; oral bioavailability [8]: excellent; volume of distribution [8]: high; maximum tolerated dose, MTD [9]: greater than 100 mg/Kg; oral MTD [10]: 50 mg/kg/day
Clc1ccc(Nc2cc3nc4ccccc4n(-c4ccc(Cl)cc4)c-3cc2=NCC23CCCN2CCC3)cc1 [Compound 6]	5.58	> 3	Inactive/ Cytotoxic	
c1ccc(Nc2cc3nc4ccccc4n(-c4ccccc4)c-3cc2=NCCCCC23CCCCN2CCCC3)cc1 [Compound 3]	10.5	4		
Clc1ccc2c(c1)nc(Cn1nnc3ccccc31)n2CC[C@@H]1CCCN2CCCC[C@H]12 [Compound 20]	19.4	6.95		
Clc1ccc(-n2c3cc(=NCCCN4CCCCC4)c(Nc4cccnc4)cc-3nc3ccccc32)cc1 [Compound 9]	1.88		Inactive/ Cytotoxic	
CC(=O)Oc1ccccc1C(=O)Oc1ccc(-c2cc(=S)ss2)cc1 [Compound 24]	32.9	> 10		activity against SARS-CoV-2 (SARS-CoV-2 [1]): no activity
Clc1ccc2c(NC[C@@H]3CCCN4CCCC[C@H]34)ccnc2c1 [Compound 10]	44	2.2		metabolic stability [7]: good; oral bioavailability [8]: excellent; volume of distribution [8]: high; maximum tolerated dose, MTD [9]: greater than 100 mg/Kg
CN1CCCC1=CN=Nc1cccc(Br)c1 [Compound 22]	26.8	> 20		activity against SARS-CoV-2 (SARS-CoV-2 [1]): no activity; IC50 (Dengue virus type 2): 24 µM
c1ccc(Nc2cc3nc4ccccc4n(-c4ccccc4)c-3cc2=NCC23CCCN2CCC3)cc1 [Compound 5]	3.2	> 2	Inactive/ Cytotoxic	
